From US6458816B1, “Modified prodrug forms of AP/AMP” (Vion Pharmaceuticals, Inc., priority 2000, dated 2002)

Legend:
[1] = In vivo PK of ortho phosphate bearing 3-AP prodrugs, single intravenous dose, beagle dog; conditions: for V/F of 3-AP: 3-AP in dog after i.v. prodrug; for Cmax of 3-AP: equimolar doses (equivalent to 3 mg/kg of 3-AP)
Description: The pharmacokinetics of 3-AP prodrugs were characterized following administration of a single intravenous dose of 7.2-8.5 mg/kg of 3-AP phosphate prodrugs (equivalent to 3 mg/kg of 3-AP) to a beagle dog. The animal was dosed once with each prodrug weekly. After each dose, a washout period of at least 6 days was maintained before the next dose was administered. Concentrations of 3-AP (Triapine) and prodrug in serum were determined by HPLC and used to calculate various PK parameters. These PK parameters were compared to those of 3-AP from equimolar doses from a separate study. Mean serum drug concentration versus time data were analyzed by both compartmental and non-compartmental models. AUC, total body clearance (Cl), steady-state volume of distribution (Vd,ss), terminal half-life (T1/2), Cmax, Tmax were calculated for both 3-AP and the prodrugs.
Ortho-phosphate prodrug was shown previously to undergo rapid bioconversion to 3-AP when incubated in vitro with alkaline phosphatase. […] At no time have we been able to detect the presence of the intermediary phenol which is the expected cleavage product. […] The 4-chloro (16), 5-methoxy (9) and 5-fluoro (7) analogs were promising in this regard as reflected in their AUCs and half-lives.
Pharmacokinetic parameters of 3-AP itself following i.v. administration of equimolar doses of the prodrugs are presented in Table 3, below.

[2] = test system: M109 murine lung carinoma; test: Activity in the M109 Lung Carcinoma Model; type: in vivo, Balb/c mice; conditions: for Relative Activity: CTX=Cytoxan
Source text: Twelve (12) 3-AP prodrugs have been evaluated for efficacy and toxicity using the M109 murine lung carinoma model in Balb/c mice. The procedure of the experiment is as follows: eight week aged female Balb/c mice (about 20 grams) were subcutaneously inoculated with 5×10^5/mouse of M109 murine lung carinoma cells at the right flank on day 0. The mice were then randomly grouped and each group consisted of 8-10 mice. 3-AP was used with the Triapine™ formulation while all 3-AP prodrugs were either dissolved or suspended in sterile deionized water. The body weight of mice and the tumor volume were measured twice weekly until the tumor in the control group became necrotic or at least one animal was dead in the control group.

[3] = Rising dose pharmacokinetic and toxicokinetic study in dogs with clinical observations; type: in vivo; conditions: dog, Triapine itself dosed at 3 mg/kg, separate study
Description: Initially, both prodrugs were studied at a single dose of 7.5-7.7 mg/kg (equivalent to 3 mg/kg of Triapine).
PK parameters of Triapine and the two prodrugs are presented in Tables 4 and 5 and are compared to those obtained, in a separate study, from administration of 3 mg/kg of Triapine (equivalent to approximately 7.5 mg/kg of prodrugs).
Serum prodrug peak concentrations and AUCs, on the other hand, were not linear with dose, and appeared to be saturated at the doses investigated. Serum concentration-time profiles of prodrugs and Triapine are presented in attached FIGS. 4 and 5. […] The sustained serum Triapine levels were presumably attributable to the high serum levels of prodrugs as well as their low total body clearance.
Treatment-related clinical observations were recorded for both dogs. […] These observations were not present on day 2. The only adverse clinical sign on day 2 was the absence of stool.
Treatment-related clinical observations were recorded for the female treated at 80 mg/kg. […] In addition, the dog was pale (pallor), diarrhea was noted, and had yellow mucous in the stool. All observations were noted on day 1 and the dog was recovered on day 2.

[4] = Pharmacokinetic Study in beagle dogs at 20-80 mg/kg; type: in vivo, beagle dogs (Canis familiaris); conditions: 30 and 40 mg/kg level
Description: Drug levels were determined for the animals at the intervals which are indicated in attached FIGS. 12-15.

[5] = Solubility in aqueous solution; type: physicochemical
Human serum stability = type: in vitro ADME; conditions: incubation in human serum
Description: Bioconversion of prodrugs to 3-AP catalyzed by alkaline phosphatase. The bioactivation of dimethyl para-prodrug and a subset of the ortho phosphate prodrugs was studied using 4.65×10^−5 unit of phosphatase enzyme solution (Type VII-SA, from Bovine Intestinal Mucose, Sigma). Upon incubation with phosphatase, all the prodrugs were converted cleanly to the parent drug 3-AP. Under these experimental conditions, there was no significant increase in the half-life (T1/2) of bioactivation of ortho phosphate prodrugs compared to that of unsubstituted ortho prodrug (Table 1, below). Human serum stability studies were conducted by incubating the prodrugs at 37° C. in human serum.

solid tumors = conditions: phase 1, patients with solid tumors; cited from earlier work
M109 lung carinoma cells = test: Efficacy of 3-AP prodrugs on M109 Lung Carcinoma in Balb/c Mice; type: in vivo; conditions: M109-bearing Balb/c mice
Source text: Drug treatment was started on day 5 according to the above schedule. […] The drinking water was autoclaved before use.

[6] = 3-AP in dog serum after i.v. prodrug, equimolar doses
[7] = 3-AP in dog serum after i.v. prodrug
[8] = prodrug in dog serum, single i.v. dose 7.2-8.5 mg/kg
[9] = prodrug in dog serum, single i.v. dose 7.2-8.5 mg/kg (equivalent to 3 mg/kg of 3-AP)
[10] = prodrug in dog, single i.v. dose 7.2-8.5 mg/kg
[11] = 60QD mpk ip, day 3-7, 10-14, 17-21
[12] = 5.5 (bid) mpk ip, day 3-7, 10-14
[13] = 100QD mpk ip, day 3-7, 10-14, 17-21

NC(=S)N/N=C/c1ncccc1NC(=O)OCc1cc(Cl)cc(Cl)c1OP(=O)(O)O [3,5-Di-Cl-(12)]
V/F of 3-AP ([1]; equimolar doses): 3.99 L/kg
AUC of 3-AP [1, 6]: 163 µg·min/L
T1/2 of 3-AP [1, 6]: 0.9 h
Cmax of 3-AP [1, 7]: 2.1 µg/mL
AUC of prodrug [1, 8]: 6939 µg·min/L
T1/2 of prodrug [1, 8]: 0.567 h
Cmax of prodrug [1, 9]: 140 µg/mL
Cl of prodrug [1, 10]: 1.2 mL/min/kg
Vss of prodrug [1, 10]: 0.08 L/kg
BW Loss (%) [2, 11]: 9.0%
Inhibition (%) [2, 11]: 58%
Relative Activity [2, 11]: <CTX

NC(=S)N/N=C/c1ncccc1N [3-AP (1A)]
half life of 3-AP itself in the dog ([1]; 3-AP itself dosed, dog serum): ~1.5 h
Cmax ([3]; Table 5): 2.3 µg/mL
AUC of Triapine [3]: 124 mg·min/L
Cmax of Triapine [3]: 2.3 µg/mL
V/F of Triapine [3]: 3.57 L/kg
BW Loss (%) [2, 12]: 8.09%
Inhibition (%) [2, 12]: 60%
Relative Activity [2, 12]: <CTX
toxicity to the animals [4]: toxic
solubility in aqueous solution [5]: less than 0.1 mg/ml

Cc1cccc(COC(=O)Nc2cccnc2/C=N/NC(N)=S)c1OP(=O)(O)O [3-CH3-(15)]
V/F of 3-AP ([1]; equimolar doses): 5.18 L/kg
AUC of 3-AP [1, 6]: 998 µg·min/L
T1/2 of 3-AP [1, 6]: 7.8 h
Tmax of 3-AP [1, 6]: 7.8 min
Cmax of 3-AP [1, 7]: 1.5 µg/mL
AUC of prodrug [1, 8]: 66756 µg·min/L
T1/2 of prodrug [1, 8]: 5.3 h
Cmax of prodrug [1, 9]: 147 µg/mL
Cl of prodrug [1, 10]: 0.11 mL/min/kg
Vss of prodrug [1, 10]: 0.08 L/kg
BW Loss (%) ([2]; 60QD mpk ip, day 3-7, 10-14): 7.9%
Inhibition (%) ([2]; 60QD mpk ip, day 3-7, 10-14): 64%
Relative Activity ([2]; 60QD mpk ip, day 3-7, 10-14): <CTX

NC(=S)N/N=C/c1ncccc1NC(=O)OCc1cc(Cl)c(Cl)cc1OP(=O)(O)O [4,5-Di-Cl-(13)]
V/F of 3-AP ([1]; equimolar doses): 3.14 L/kg
AUC of 3-AP [1, 6]: 392 µg·min/L
T1/2 of 3-AP [1, 6]: 1.7 h
Cmax of 3-AP [1, 7]: 2.7 µg/mL
AUC of prodrug [1, 8]: 21499 µg·min/L
Cmax of prodrug [1, 9]: 220 µg/mL
BW Loss (%) [2, 11]: 10.0%
Inhibition (%) [2, 11]: 57%
Relative Activity [2, 11]: <CTX

COc1ccc(COC(=O)Nc2cccnc2/C=N/NC(N)=S)c(OP(=O)(O)O)c1 [4-CH3O (17)]
Half-life, Human Serum 37° C. (Human serum stability): 13.3 h

NC(=S)N/N=C/c1ncccc1NC(=O)OCc1c(OP(=O)(O)O)ccc(Cl)c1Cl [5,6-Di-Cl-(14)]
V/F of 3-AP ([1]; equimolar doses): 2.32 L/kg
T1/2 of 3-AP [1, 6]: 1.6 h
Cmax of 3-AP [1, 7]: 3.6 µg/mL
AUC of prodrug [1, 8]: 34211 µg·min/L
Cmax of prodrug [1, 9]: 202 µg/mL
BW Loss (%) [2, 11]: 7.0%
Inhibition (%) [2, 11]: 59%
Relative Activity [2, 11]: <CTX

NC(=S)N/N=C/c1ncccc1NC(=O)OCc1cc(C(F)(F)F)ccc1OP(=O)(O)O [5-CF3-(11)]
V/F of 3-AP ([1]; equimolar doses): 2.74 L/kg
AUC of 3-AP [1, 6]: 280 µg·min/L
T1/2 of 3-AP [1, 6]: 1.1 h
Cmax of 3-AP [1, 7]: 3.0 µg/mL
AUC of prodrug [1, 8]: 9579 µg·min/L
T1/2 of prodrug [1, 8]: 0.717 h
Cmax of prodrug [1, 9]: 156 µg/mL
Cl of prodrug [1, 10]: 0.86 mL/min/kg
Vss of prodrug [1, 10]: 0.08 L/kg
BW Loss (%) [2, 13]: 9.1%
Inhibition (%) [2, 13]: 77%
Relative Activity [2, 13]: <CTX

NC(=S)N/N=C/c1ccc(O)cn1 [5-HP]
activity in patients (solid tumors): inactive

NC(=S)N/N=C/c1ncccc1NC(=O)OCc1cc([N+](=O)[O-])ccc1OP(=O)(O)O [5-NO2-(8)]
V/F of 3-AP ([1]; equimolar doses): 4.27 L/kg
AUC of 3-AP [1, 6]: 84 µg·min/L
T1/2 of 3-AP [1, 6]: 0.5 h
Cmax of 3-AP [1, 7]: 1.9 µg/mL
AUC of prodrug [1, 8]: 3396 µg·min/L
T1/2 of prodrug [1, 8]: 0.317 h
Cmax of prodrug [1, 9]: 126 µg/mL
Cl of prodrug [1, 10]: 2.33 mL/min/kg
Vss of prodrug [1, 10]: 0.12 L/kg
BW Loss (%) [2, 11]: 9.7%
Inhibition (%) [2, 11]: 33%
Relative Activity [2, 11]: <<CTX

NC(=S)N/N=C/c1ncccc1NC(=O)OCc1ccccc1OP(=O)(O)O [Ortho- (3), reference compound]
AUC of 3-AP [1, 6]: 698 µg·min/L
Cmax ([1]; beagle, iv, prodrug in dog serum, single i.v. dose 7.2-8.5 mg/kg (equivalent to 3 mg/kg of 3-AP)): 125 µg/mL
half-life ([1]; beagle, iv, prodrug in dog serum, single i.v. dose 7.2-8.5 mg/kg, read-out: T1/2 of prodrug (converted)): 5.9 h
clearance ([1]; beagle, serum, iv, prodrug in dog, single i.v. dose 7.2-8.5 mg/kg, read-out: Cl of prodrug): 0.11 mL/min/kg
Vd ([1]; beagle, serum, iv, prodrug in dog, single i.v. dose 7.2-8.5 mg/kg, read-out: Vss of prodrug): 0.14 L/kg
AUC of prodrug [1, 8]: 63309 µg·min/L
BW Loss (%) ([2]; 48QD mpk ip, day 5-9, 12-16): 12.6%
Inhibition (%) ([2]; 48QD mpk ip, day 5-9, 12-16): 70%
Relative Activity ([2]; 48QD mpk ip, day 5-9, 12-16): <CTX
activity versus cytoxan ([2]; M-109 solid tumor bearing mice): comparable activity to that of cytoxan
efficacy and toxicity versus parent 3-AP ([2]; M-109 solid tumor bearing mice): better efficacy with reduced toxicity than the parent 3-AP
efficacy on M109 lung carcinoma compared with the 3-AP parent drug at the MTD ([2]; mice): better efficacy
reason treatment was stopped before the end of the experiment (M109 lung carinoma cells): severe toxic reactions or mortality of the mice
toxicity to the animals [4]: toxic

N/C(S)=N/N=C/c1ncccc1NC(=O)OCc1ccc(OP(=O)(O)O)cc1 [Para- (2), reference compound]
AUC of 3-AP [1, 6]: 74.5 µg·min/L
